# Test system: androgen receptor (AR)
# Assay: AR ELISA assay (androgen receptor degradation)
# Assay type: cell-based
# Conditions: LNCaP and/or VCaP cells, 5 hours drug treatment; for AR Dmax: % degraded
# Method: 5. AR ELISA Assay Protocol
# Compounds were evaluated in this assay in LNCaP and/or VCaP cells utilizing similar protocols. The protocols used with VCaP cells are described below. The androgen receptor ELISA assay was performed using PathScan AR Sandwich ELISA (Cell Signaling Catalog #12850) according to the following assay steps:
# VCaP cells were seeded at 40,000 cells/well at a volume of 100 µL/well in VCaP assay medium [Phenol red free RPMI (Gibco Cat #11835-030); 5% Charcoal Stripped (Dextran treated) FBS (Omega Scientific, Cat #FB-04); 1% penstrep (Life Technologies, Gibco Cat #: 10378-016)] in Corning 3904 plates. The cells were incubated for a minimum of 3 days. Cells were dosed with PROTACs diluted in 0.01% DMSO and the drug treatment was allowed for 5 hours.
# AR ELISA (Cell Signaling) was performed as follows. 1×Cell Signaling Cell lysis buffer was made (Catalogue #9803; comes with the kit). Media from the treated wells is aspirated, and 100 μL 1×cell lysis buffer/well is added. The cells were placed on a shaker for 10 minutes at 4° C. Twenty microliters of lysate was transferred to 100 μl of Diluent in ELISA plate ([…]-0.075 μg/ml). The lysate-diluent mixture was shaken for 30 minutes at 37° C. Allow mouse AR antibody, anti-mouse antibody, TMB, and STOP solution to come to room temperature. The 1×ELISA buffer included in kit was made and loaded in the reservoir. Media from the plates was discarded, the ELISA plate tapped hard on paper towel, and washed 4×200 μl ELISA wash buffer using a plate washer.
# One-hundred (100) μL/well of mouse AR detection Ab was added; the plates were covered and shaken at 37° C. for 1 hour; media was discarded from the plates, the plates were tapped on a paper towel, washed 4× with 200 μL ELISA wash buffer with a plate washer.
# One-hundred (100) μL/well of anti-mouse—HRP conjugated Ab (comes with the kit) was added; the plates were covered and shaken at 37° C. for 30 minutes; the TMB reagent was allowed to come to room temperature; the media was discard from the plate, the plates were tapped on paper towel, washed 4× with 200 μL of ELISA wash buffer; the plates were tapped the plates on paper towel. One-hundred (100) μL of TMB was added and the plates shaken for 2 minutes—while watching for color development. One-hundred (100) μL Stop solution was added when light blue color developed. Plates were shaken and read at 450 nm.
SMILES,AR Dmax,DC50
"CC1(C)[C@H](NC(=O)c2ccc(N3CCC(CN4CCN(c5ccc(C(=O)NC6CCC(=O)NC6=O)nc5)CC4)CC3)cc2)C(C)(C)[C@H]1Oc1ccc(C#N)c(Cl)c1 (mixture of isomers) [PROTAC-55, rac-5-(4-((1-(4-(((1r,3r)-3-(3-chloro-4-cyanophenoxy)-2,2,4,4-tetramethylcyclobutyl)carbamoyl)phenyl)piperidin-4-yl)methyl)piperazin-1-yl)-N-(2,6-dioxopiperidin-3-yl)picolinamide]",B (50 < B <= 75),< 1 nM
"CC1(C)[C@H](NC(=O)c2ccc(N3CCN(CCCOc4cnn(C5CCC(=O)NC5=O)c(=O)c4)CC3)nc2)C(C)(C)[C@H]1Oc1ccc(C#N)c(Cl)c1 (mixture of isomers) [PROTAC-60, rac-N-((1r,3r)-3-(3-chloro-4-cyanophenoxy)-2,2,4,4-tetramethylcyclobutyl)-6-(4-(3-((1-(2,6-dioxopiperidin-3-yl)-6-oxo-1,6-dihydropyridazin-4-yl)oxy)propyl)piperazin-1-yl)nicotinamide]",C (C <= 50),≥ 100 nM
"CC1(C)[C@H](NC(=O)c2ccc(N3CCN(CCCCCOc4ccc(C(=O)NC5CCC(=O)NC5=O)nc4)CC3)nc2)C(C)(C)[C@H]1Oc1ccc(C#N)c(Cl)c1 (mixture of isomers) [PROTAC-27, rac-5-((5-(4-(5-(((1r,3r)-3-(3-chloro-4-cyanophenoxy)-2,2,4,4-tetramethylcyclobutyl)carbamoyl)pyridin-2-yl)piperazin-1-yl)pentyl)oxy)-N-(2,6-dioxopiperidin-3-yl)picolinamide]",B (50 < B <= 75),1 to 10 nM
"CC1(C)[C@H](NC(=O)c2ccc(N3CCC(CN4CCC5(CC4)CC(=O)N(C4CCC(=O)NC4=O)C5=O)CC3)cc2)C(C)(C)[C@H]1Oc1ccc(C#N)c(Cl)c1 (mixture of isomers) [PROTAC-75, rac-N-((1r,3r)-3-(3-chloro-4-cyanophenoxy)-2,2,4,4-tetramethylcyclobutyl)-4-(4-((2-(2,6-dioxopiperidin-3-yl)-1,3-dioxo-2,8-diazaspiro[4.5]decan-8-yl)methyl)piperidin-1-yl)benzamide]",6C (C <= 50),≥ 100 nM
"Cn1c(-c2cccc(OCCCCCN3CCN(c4ccc(C(=O)N[C@H]5C(C)(C)[C@H](Oc6ccc(C#N)c(Cl)c6)C5(C)C)cc4)CC3)c2)nn(C2CCC(=O)NC2=O)c1=O (mixture of isomers) [PROTAC-67, rac-N-((1r,3r)-3-(3-chloro-4-cyanophenoxy)-2,2,4,4-tetramethylcyclobutyl)-4-(4-(5-(3-(1-(2,6-dioxopiperidin-3-yl)-4-methyl-5-oxo-4,5-dihydro-1H-1,2,4-triazol-3-yl)phenoxy)pentyl)piperazin-1-yl)benzamide]",C (C <= 50),1 to 10 nM
"CC1(C)[C@H](NC(=O)c2ccc(N3CCC(CN4CCN(c5ccc(C(=O)NC6CCC(=O)NC6=O)nc5)CC4)CC3)nc2)C(C)(C)[C@H]1Oc1ccc(C#N)c(Cl)c1 (some centres unmarked) [PROTAC-53, 5-(4-((1-(5-(((1r,3r)-3-(3-chloro-4-cyanophenoxy)-2,2,4,4-tetramethylcyclobutyl)carbamoyl)pyridin-2-yl)piperidin-4-yl)methyl)piperazin-1-yl)-N-(2,6-dioxopiperidin-3-yl)picolinamide]",A (A > 75),< 1 nM
"CC1(C)[C@H](NC(=O)c2ccc(N3CCC(CN4CCN(c5ccc6c(c5)C(=O)N(c5ccc[nH]c5=O)C6=O)CC4)CC3)cc2)C(C)(C)[C@H]1Oc1ccc(C#N)c(Cl)c1 [PROTAC-44, rac-N-((1r,3r)-3-(3-chloro-4-cyanophenoxy)-2,2,4,4-tetramethylcyclobutyl)-4-(4-((4-(1,3-dioxo-2-(2-oxo-1,2-dihydropyridin-3-yl)isoindolin-5-yl)piperazin-1-yl)methyl)piperidin-1-yl)benzamide]",C (C <= 50),≥ 100 nM
"CN(C(=O)c1ccc(OCCCCCN2CCN(c3ccc(C(=O)N[C@H]4C(C)(C)[C@H](Oc5ccc(C#N)c(Cl)c5)C4(C)C)cn3)CC2)cc1)C1CCC(=O)NC1=O (mixture of isomers) [PROTAC-49, rac-N-((1r,3r)-3-(3-chloro-4-cyanophenoxy)-2,2,4,4-tetramethylcyclobutyl)-6-(4-(5-(4-((2,6-dioxopiperidin-3-yl)(methyl)carbamoyl)phenoxy)pentyl)piperazin-1-yl)nicotinamide]",C (C <= 50),≥ 100 nM
"CC1(C)[C@H](NC(=O)c2ccc(N3CCC(CN4CCN(c5ccc(C(=O)NC6CCC(=O)NC6=O)nc5)CC4)CC3)nn2)C(C)(C)[C@H]1Oc1ccc(C#N)c(Cl)c1 (mixture of isomers) [PROTAC-54, rac-N-((1r,3r)-3-(3-chloro-4-cyanophenoxy)-2,2,4,4-tetramethylcyclobutyl)-6-(4-((4-(6-((2,6-dioxopiperidin-3-yl)carbamoyl)pyridin-3-yl)piperazin-1-yl)methyl)piperidin-1-yl)pyridazine-3-carboxamide]",B (50 < B <= 75),1 to 10 nM
"N#Cc1ccc(O[C@H]2CC[C@H](NC(=O)c3ccc(N4CCC(CN5CCN(c6cc(C(=O)NC7CCC(=O)NC7=O)c(C(=O)O)cc6F)CC5)CC4)nn3)CC2)cc1Cl (some centres unmarked) [PROTAC-58, 4-(4-((1-(6-(((1r,4r)-4-(3-chloro-4-cyanophenoxy)cyclohexyl)carbamoyl)pyridazin-3-yl)piperidin-4-yl)methyl)piperazin-1-yl)-2-((2,6-dioxopiperidin-3-yl)carbamoyl)-5-fluorobenzoic acid]",B (50 < B <= 75),10 to 100 nM
"CC1(C)[C@H](NC(=O)c2ccc(N3CCC(CCN4CCN(c5cnn(C6CCC(=O)NC6=O)c(=O)c5)CC4)CC3)cc2)C(C)(C)[C@H]1Oc1ccc(C#N)c(Cl)c1 (mixture of isomers) [PROTAC-63, rac-N-((1r,3r)-3-(3-chloro-4-cyanophenoxy)-2,2,4,4-tetramethylcyclobutyl)-4-(4-(2-(4-(1-(2,6-dioxopiperidin-3-yl)-6-oxo-1,6-dihydropyridazin-4-yl)piperazin-1-yl)ethyl)piperidin-1-yl)benzamide]",A (A > 75),< 1 nM
"CC1(C)[C@H](NC(=O)c2ccc(N3CCN(CCCCCOc4ccc5ncc(-n6ccc(=O)[nH]c6=O)cc5c4)CC3)nc2)C(C)(C)[C@H]1Oc1ccc(C#N)c(Cl)c1 [PROTAC-47, N-((1r,3r)-3-(3-chloro-4-cyanophenoxy)-2,2,4,4-tetramethylcyclobutyl)-6-(4-(5-((3-(2,4-dioxo-3,4-dihydropyrimidin-1(2H)-yl)quinolin-6-yl)oxy)pentyl)piperazin-1-yl)nicotinamide]",C (C <= 50),1 to 10 nM
"C=C1CN(C2CCC(=O)NC2=O)C(=O)c2ccc(N3CCN(CC4CCN(c5ccc(C(=O)N[C@H]6C(C)(C)[C@H](Oc7ccc(C#N)c(Cl)c7)C6(C)C)cc5)CC4)CC3)cc21 (some centres unmarked) [PROTAC-81, N-((1r,3r)-3-(3-chloro-4-cyanophenoxy)-2,2,4,4-tetramethylcyclobutyl)-4-(4-((4-(2-(2,6-dioxopiperidin-3-yl)-4-methylene-1-oxo-1,2,3,4-tetrahydroisoquinolin-6-yl)piperazin-1-yl)methyl)piperidin-1-yl)benzamide]",A (A > 75),< 1 nM
"CC1(C)[C@H](NC(=O)c2ccc(N3CCN(CCCCOc4ccc(C(=O)NC5CCC(=O)NC5=O)nc4)CC3)nc2)C(C)(C)[C@H]1Oc1ccc(C#N)c(Cl)c1 (mixture of isomers) [PROTAC-51, rac-5-(4-(4-(5-(((1r,3r)-3-(3-chloro-4-cyanophenoxy)-2,2,4,4-tetramethylcyclobutyl)carbamoyl)pyridin-2-yl)piperazin-1-yl)butoxy)-N-(2,6-dioxopiperidin-3-yl)picolinamide]",C (C <= 50),< 1 nM
"CC1(C)[C@H](NC(=O)c2ccc(N3CCC(CN4CCN(c5ccc6c(c5)C(=O)N(c5ccc(O)[nH]c5=O)C6=O)CC4)CC3)cc2)C(C)(C)[C@H]1Oc1ccc(C#N)c(Cl)c1 [PROTAC-45, N-((1r,3r)-3-(3-chloro-4-cyanophenoxy)-2,2,4,4-tetramethylcyclobutyl)-4-(4-((4-(2-(6-hydroxy-2-oxo-1,2-dihydropyridin-3-yl)-1,3-dioxoisoindolin-5-yl)piperazin-1-yl)methyl)piperidin-1-yl)benzamide]",C (C <= 50),≥ 100 nM
"N#Cc1ccc(O[C@H]2CC[C@H](NC(=O)c3ccc(N4CCC(CN5CCN(c6cc(C(=O)O)c(C(=O)NC7CCC(=O)NC7=O)cc6F)CC5)CC4)nn3)CC2)cc1Cl (some centres unmarked) [PROTAC-57, 5-(4-((1-(6-(((1r,4r)-4-(3-chloro-4-cyanophenoxy)cyclohexyl)carbamoyl)pyridazin-3-yl)piperidin-4-yl)methyl)piperazin-1-yl)-2-((2,6-dioxopiperidin-3-yl)carbamoyl)-4-fluorobenzoic acid]",A (A > 75),1 to 10 nM

# From patent US20250313547A1, “CEREBLON LIGANDS AND BIFUNCTIONAL COMPOUNDS COMPRISING THE SAME” (Arvinas Operations, Inc., priority 2017, published 2025)
